From patent publication US11260062B2, “Pharmaceutical composition for treatment of lung cancer comprising glucocorticoid-based compound” (AJOU UNIVERSITY INDUSTRY-ACADEMIC COOPERATION FOUNDATION, priority 2015, dated 2022) come the findings set out here.

Residues, ends and D or L forms follow the SMILES beside them. *: point of attachment. Cbz = O=C(OCc1ccccc1)* Some results are limits rather than exact numbers.

Data set [1] relates to NRF2. Kind of data set: ARE-luciferase assay for NRF2 activity in A549-ARE cells. Type of data set: cell-based. Here is the method: In addition, A549-ARE cells were firstly dispensed into 5×10^3 cells per well in a 96 well plate, and each of the clinical compounds was treated with various concentrations (1 μM or 5 μM) after 24 hours. After 24 hours, 30 μl of a lysis buffer was added, and the mixture was dissolved at 4° C. for 40 minutes using a rocker. 20 μl of the dissolved product was added to a 96-well white plate and 100 μl of a luciferase substrate buffer having the following composition was added thereto and luciferase activity was measured by using a plate reader.
The remaining dissolved product was diluted five times with distilled water (DW) and the protein concentration was measured by the Bradford assay (BioRad). Specifically, 200 μl of the Bradford reagent (Coomassie Brilliant Blue G-250) diluted […] with distilled water was reacted with 5 μl of the remaining dissolved product and absorbance was measured at 595 nm. The protein concentration of the dissolved products was calculated by the same experiment using BSA solution as a standard protein. The luciferase value was calibrated by dividing the luciferase value measured above by the measured protein concentration.
Namely, the luciferase assays were performed using […] cells as the method of the Example 1.

The test system of data set [2] is NRF2. Kind of data set: Western blotting of NRF2 protein in A549 cells. Type of data set: cell-based. Here is the method: (§1) Specifically, for Western blotting, the A549 cells expressing Tet-pLKO-NCshRNA (negative control) and three Tet-pLKO-NRF2 shRNAs were treated with doxycycline for 3 days and 6 days, followed by separation of proteins. Each separated 10 μg of the protein was loaded on 8% acrylamide gel, electrophoresed, transferred to nitrocellulose (NC) membrane, and NRF2 antibody (Cell signaling, 1:1000) and actin antibody (SCBT, 1:1000) were diluted in TBST (Tris-Buffered Saline with Tween 20) buffer containing 5% skim milk and reacted overnight at 4° C. Subsequently, the secondary antibody was reacted for 1 hour, washed with TBST, and the protein expression level was measured using ECL (Enhanced chemiluminescence).
Firstly, the A549-tet-on cells transfected with the vector containing GCR-shRNA were constructed and after the treatment with doxycycline and clobetasol propionate, and protein extracts were prepared by hemolysis with cell lysis buffer (Cell signaling technology) supplemented with protease inhibitor cocktail (EMD millipore) to perform Western blotting. Then, western blotting was carried out in the same manner as in the Example 1. At this time, the concentration of the protein was determined by performing a Bradford assay according to the Example 1. In addition, luciferase assays were carried out in the same manner as in the Example 1.
(§2) According to accumulated research results, NRF2 protein levels can be regulated by mRNA transcription, or proteasome related degradation. To confirm whether NRF2 is suppressed through mRNA transcription inhibition or NRF2 is suppressed by promoting proteasome-related degradation, real-time PCR was performed on the cells, and MG132, a proteasome inhibitor, was treated and Western blotting was performed in the same manner as in the Example 1.
In general, proteasome degradation of the NRF2 protein consists of two pathways as shown in FIG. 5a: i.e. a pathway by KEAP1 and a pathway by GSK3-β-TrCP. […]

The test system of data set [3] is NRF2. Kind of data set: Real-time PCR of NRF2 mRNA in A549 cells. Type of data set: cell-based. The method, then:
as §2
Specifically, for real-time PCR, total RNA was extracted from A549 cells using TRIZol (Invitrogen). Then, 1 μg of total RNA was reverse transcribed to cDNA using oligo dT primer and SuperScript II Reverse Transcriptase according to the manufacturer's instructions (Invitrogen). Thereafter, PCR was performed according to the manufacturer's instructions (Affymetrix) using HotStart-IT SYBR Green qPCR Master Mix.
(In general: Real-time PCR tracks product formation cycle by cycle.)

Data set [4] concerns A549 and H2228 cell lines. Kind of data set: Hydrogen peroxide (active oxygen) measurement with CMH2DCF-DA. Type of data set: cell-based. The method, then:
In addition, because ME1 and GCLM proteins have detoxification activity of hydrogen peroxide, to confirm this change, the amount of hydrogen peroxide after the treatment with clobetasol propionate was measured as follows: The A549 and H2228 cell lines were cultured in 5 μM CMH2DCF-DA (Invitrogen) after the incubation for 30 minutes, the cultured cells were washed twice with phosphate buffered saline and incubated in the dark for 40 minutes with 90% dimethylsulfoxide (DMSO) and 10% PBS, and the fluorescent dye was released. After the culture, the supernatant of the culture liquid was dispensed into a 96-well plate and the amount of fluorescence was measured at 480/530 nm. For standardization of the measured fluorescence intensity, the cells remaining after removing the supernatant and washing with PBS, were stained with a crystal violet solution (20% methanol and 0.5% crystal violet) for 10 minutes at room temperature. After washing three times, the incubation was performed for solubilization in 1% SDS solution and absorbance at 570 nm was measured.

Data set [5] can be described thus: Xenograft assay, body weight / side effects. Type of data set: in vivo, Balb/c-nu mice. Conditions: all treatment groups, 40 days. The method, then: On the other hand, xenograft assay was performed using A549 cell line. Specifically, Balb/c-nu mice (6-8 weeks of age, Orient Bio, Seongnam, Korea) were prepared to perform tumor genografts and A549-luc-C8 cells (Perkin Elmer, 5.0×10^6/head) were injected subcutaneously into the mice. Two weeks later, when the size of tumors reached 50-100 mm^3, mice were divided to 6 groups: a control group administered with only vehicle (200 μl of PBS containing 1.2% DMSO, 0.25% PEG 400 and 0.25% tween 80), a group administered with 0.5 mg/kg of clobetasol propionate (CP), a group administered with 1 mg/kg of clobetasol propionate, a group administered with 1 mg/kg of rapamycin, and Combination 1 (CP 0.5 mg/kg+rapamycin 1 mg/kg) and Combination 2 (CP 1 mg/kg+rapamycin 1 mg/kg). Then, for the next 40 days, the vehicle and rapamycin (n=5 per group) were injected intraperitoneally daily (5 days per week) and clobetasol propionate was injected intraperitoneally once every 2 days (3 days per week).
Primary tumor size and body weight were measured every 3 to 4 days by a caliper and a balance, and the volume of the tumor was V (mm^3)=(A×B^2)/2 (V is volume, A Is the long diameter and B is the short diameter).

Data set [6] relates to NRF2. Kind of data set: Western blotting of nuclear and cytoplasmic fractions (NRF2 migration to the nucleus). Type of data set: cell-based. The source says: Furthermore, GSK3 inhibits the migration of NRF2 to the nucleus, as known so far.
The test system of another data set is A549. Kind of data set: Soft agar assay, A549. The class given is cell-based. Conditions: A549 (KEAP1-mutant, LKB1-mutant), 2 weeks. The method, then: (§3) The synergistic anticancer effects of the treatment of clobetasol propionate sole and the combined use with rapamycin, an mTOR inhibitor on LKB1/KEAP1 normal lung cancer cell line H1299, KEAP1 mutant cell line H2228, LKB1/KEAP1 mutant lung cancer cell lines A549 and H460 were analyzed by soft agar assay. In order to confirm whether the tumor inhibitory effect of clobetasol propionate was due to NRF2 inhibition, the effect was compared with tumor suppression effect in NRF2 knock-down lung cancer cell line using NRF2-shRNA-2, which was used in the Example 2.
(§4) Specifically, […] of a 0.7% agar-containing DMEM medium was added into a 12-well plate and was solidified (bottom agar) and 300 μl of a DMEM medium containing 3×10^3 cells and 0.35% agar was placed on the solidified agar medium and solidified (top agar+/− Doxycycline). After solidification, 250 μl of DMEM medium (+/− Doxycycline) was added and the number of colonies formed after culturing for 2 weeks in a CO2 incubator was determined, and the result was shown in FIGS. 7a to 7e.

A further data set deals with A549-luc-C8 cells. Kind of data set: Xenograft assay with A549 cell line, tumor volume. Type of data set: in vivo, Balb/c-nu mice. Particulars: 40 days.
A further data set deals with H1299. Kind of data set: Soft agar assay, H1299. The class given is cell-based. Particulars: H1299 (KEAP1-normal, LKB1-normal), 2 weeks. The method, then:
as §3, §4

The test system of the next data set is H460. Kind of data set: Soft agar assay, H460. The class given is cell-based. Particulars: H460 (KEAP1-mutant, LKB1-mutant), sole treatment. Here is the method: as §3, §4
Thereafter, the synergistic effect was analyzed when clobetasol propionate and rapamycin were simultaneously treated, or NRF2 was knocked down using NRF2-shRNA and treated with rapamycin.

Data set [7] has as its system NRF2 target proteins (G6PD, PGD, ME1, GCLM, AKR1B10 and AKR1C3). Kind of data set: Western blotting of NRF2 target proteins in KEAP1 mutant cells. Conditions: 2, 4 or 5 days. The class given is cell-based. The method, then: In order to confirm the effect of glucocorticoid on cells having high NRF2-activity, KEAP1 mutant cells (A549 and H2228) were treated with clobetasol propionate for 2 days, 4 days or 5 days, the expression of major NRF2 target proteins (G6PD, PGD, ME1, GCLM, AKR1B10 and AKR1C3) associated with redox regulation was measured by the Western blotting. As a control, the cell was used, in which NRF2-shRNA was transformed to H2228 cell line to inhibit NRF2 expression.
A general note: A western blot detects proteins with antibodies after separation by electrophoresis.

Another data set relates to H2228. Kind of data set: Soft agar assay, H2228. Type of data set: cell-based. Particulars: H2228 (KEAP1-mutant, LKB1-normal), 2 weeks. The method, then: as §3, §4
Data set [8] has as its system NRF2. Kind of data set: Verification of doxycycline-inducible NRF2-shRNA in A549-ARE cells (Western blotting, luciferase, GFP). Conditions: doxycycline-induced, compared among three NRF2-shRNAs. The class given is cell-based. Here is the method:
In order to construct a Tet-inducible shRNA expression system, the following shRNAs were inserted into a tet-pLKO-pyro vector (Dmitri Wiederschain: Addgene plasmid #21915) and then A549-ARE cell line expressing doxycycline-inducible NRF2-shRNA was established by the transduction.
Then, 0.2 μg/mL of doxycycline (DOX; Clontech) was treated every 2 days in the medium to induce NRF2-shRNA expression. Thereafter, the NRF2 expression inhibition efficiency was verified by Western blotting, luciferase activity measurement and GFP expression measurement using a fluorescence microscope.
as §1

Setting [9] is: co-treatment with clobetasol propionate.
[10] abbreviates: A549-tet-on GCR-shRNA cells, effect blocked by inhibition of GCR expression.
Setting [11] is: KEAP1 mutant A549 cells, co-treatment with clobetasol propionate.

Description for A549-luc-C8 cells: Thereafter, mice were sacrificed in a 7.5% CO2 chamber and tumors were obtained for further analysis.

With `CC(C)C[C@@H](C=O)NC(=O)[C@H](CC(C)C)NC(=O)[C@H](CC(C)C)NC(=O)OCc1ccccc1` [MG132] (Cbz-Leu-Leu-Leu-aldehyde), in the data set on NRF2 [1] (setting [9]), the “inhibition of NRF2 activity by glucocorticoids, on MG132 treatment” value is “does not recover”. In the data set on NRF2 [2] (setting [9]), the “amount of NRF2 protein inhibited by clobetasol propionate, on MG132 treatment” value is listed as “recovered”.
For `CCC(=O)O[C@]1(C(=O)CCl)[C@@H](C)C[C@H]2[C@@H]3CCC4=CC(=O)C=C[C@]4(C)[C@@]3(F)[C@@H](O)C[C@@]21C` [clobetasol propionate], the “mRNA level of NRF2” value with NRF2 [3] is “did not affect”. In addition, the “time for which inhibition of NRF2 activity was maintained” value in the data set with NRF2 [1] (100 nM, measured at 8, 24 and 48 hours) is reported as “at least 48 hours”. In addition, in the data set on NRF2 [1] (1 μM), the “NRF2 inhibitory effect at 1 μM compared among 13 GCs-based drugs” value was “most excellent inhibitory effect”. For the same molecule, in the data set with NRF2 [1] (setting [10]), the “activity of the NRF2 protein (luciferase)” value was “significantly reduced”. Further, the “concentration from which excellent NRF2 inhibitory effect is shown (luciferase)” value in the data set with NRF2 [1] (concentration comparison of 13 GCs-based drugs) is reported as ≥ 1 nM. In addition, the “active oxygen (hydrogen peroxide)” value in data set [4] (A549) and in [4] (H2228) was “significantly increased” in each case. For the same molecule, the “body weight of the mice” value in data set [5] is “no significant change”. Besides, the “migration of NRF2 into the nucleus” value in the data set on NRF2 [6] (under the treatment of MG132) is recorded as “inhibited”. In addition, the “cell growth (colonies in soft agar)” value with A549 was “strongly inhibited”; with H1299, “did not significantly affect”; with H460, “slightly inhibited”; with H2228 it was “strongly inhibited”. For the same molecule, the “anticancer effect (tumor volume)” value with A549-luc-C8 cells (0.5 mpk intraperitoneally once every 2 days) and with A549-luc-C8 cells (1 mpk intraperitoneally once every 2 days) was “distinct anticancer effect” in each case. In addition, in [7] (A549 cell line), the “NRF2 target protein expression” value is listed as “effectively inhibited”. In data set [7] (H2228 cell line), the “expression of NRF2 target which has antioxidative activity” value is given as “effectively inhibited”. In the data set with NRF2 [2] (setting [10]), the “level of the NRF2 protein (Western blot)” value was “significantly reduced”.
In the case of `CO[C@H]1C[C@@H]2CC[C@@H](C)[C@@](O)(O2)C(=O)C(=O)N2CCCC[C@H]2C(=O)O[C@H]([C@H](C)C[C@@H]2CC[C@@H](O)[C@H](OC)C2)CC(=O)[C@H](C)/C=C(\C)[C@@H](O)[C@@H](OC)C(=O)[C@H](C)C[C@H](C)/C=C/C=C/C=C/1C` [rapamycin], the “body weight of the mice” value in data set [5] was “no significant change”.
For the molecule `Cc1c[nH]c(-c2cnc(NCCNc3ccc(C#N)cn3)nc2-c2ccc(Cl)cc2Cl)n1` [GSK3 inhibitor, CT99021], the “inhibition of activity of NRF2 induced by clobetasol propionate, on GSK3 inhibitor treatment” value in the data set on NRF2 [1] (setting [11]) is given as “inhibited”. In addition, in the data set on NRF2 [6] (under the treatment of MG132, co-treatment with clobetasol propionate), the “effect of clobetasol propionate on NRF2 migration into the nucleus, on GSK3 inhibitor treatment” value is “completely blocked”. Also, the “NRF2 proteolysis induced by clobetasol propionate, on GSK3 inhibitor treatment” value with NRF2 [2] (setting [11]) was “inhibited”.
As for “NRF2sh-2: doxycyclin-inducible NRF2-shRNA, SEQ. NO. 2 of Table 1 (CCGGGCTCCTACTGTGATGTGAAATCTCGAGATTTCACATCACAGTAGGAGCTTTTTG)”, the “inhibition of NRF2 protein expression, luciferase activity and GFP signal” value in the data set on NRF2 [8] was “most effectively”.
